Results from US8557763B2, “Synthetic peptides that enhance tight junction permeability” (Alba Therapeutics Corporation, priority 2007, dated 2013).
Where no end group is shown, it is not given here. [ ]: non-standard residue; d: D form. AllylGly = C=CC[C@H](N)C(=O)O

Legend:
CaCo2 monolayers [1] = test: Trans Epithelial Electric Resistance (TEER) across CaCo2 monolayers; type: cell-based; parameters: key to Reduced TEER: + indicates an enhancement of the permeability of the tight junctions were observed; − indicates no enhancement of permeability was observed; details: CaCo2 monolayers
Description: (§1) Agonists of tight junctions can be identified by their ability to enhance the flux of compounds (e.g. ions, Lucifer Yellow) through a cell monolayer that comprises tight junctions; or by their ability to reduce TEER across a cell monolayer that comprises tight junctions. Treatment of CaCo2 monolayers with peptide FCIGRL (SEQ ID NO: 1) led to a 51-fold enhancement of Lucifer Yellow permeability through CaCo2 monolayers compared to vehicle alone.
Treatment of CaCo2 monolayers with peptide FCIGRL led to a 16-fold decrease in TEER across CaCo2 monolayers compared to vehicle alone.
(§2) Tight junction agonists can be identified and tested using the following method:
(§3) Determination of TEER and Lucifer Yellow Flux
(§4) Prepare Modified Hank's Balanced Salt Solution (MHBSS) by obtaining 1 L bottle of HBSS removing 10 ml of HBSS and replacing it with 10 ml HEPES buffer pH 7.0. Adjust pH to 7.4±0.1 using concentrated NaOH (10N).
(§5) Remove CaCo-2 cells from incubator, grown on 12-well, 3.0 μM, polycarbonate Transwell® filters (Corning) and record passage#, date cells seeded and age in days.
(§6) Aspirate cell culture medium from both the apical (AP) and basolateral (BL) compartments, replacing with 0.5 ml and 1.5 ml of MHBSS, respectively. Incubate cells at 37° C. for 30 minutes.
Using the MilliCell®-ERS instrument (Millipore), measure and record the transepithelial electrical resistance (TEER) across each filter and record.
(§7) Aspirate solution from the apical compartment of each filter (n=3 per condition) and replace with 0.5 ml of control and test solutions containing Lucifer Yellow and test compound if appropriate.
(§8) Place all plates into incubator set at 37° C. (±0.2), 50 RPM (±5) for a total of 180 minutes.
At t=30, 60, 120 and 180 minutes, measure and record the transepithelial electrical resistance (TEER) across each filter using the MilliCell-ERS instrument.
(§9) Cells: CaCo-2 cells passage 40-60 grown on Transwell® plates for 21-28 days
(§10) Culture Medium: DMEM supplemented with 10% fetal bovine serum, 1% NEAA, 1% Penn/Strep
(§11) Buffers: Hank's Balanced Salt Solution (HBSS) without calcium and magnesium
(§12) Flasks: 100×20 mm Tissue culture dish Falcon.
(§13) Plates: 12 well polycarbonate Transwell® filters; 0.3 uM pore size

CaCo2 monolayers [2] = test: Lucifer Yellow (LY) permeability assay through CaCo2 monolayers; type: cell-based; parameters: key to Enhanced LY permeability: + indicates an enhancement of the permeability of the tight junctions were observed; − indicates no enhancement of permeability was observed; details: CaCo2 monolayers, Lucifer Yellow flux
Description: as §1, §2, §3, §4, §5, §6, §7, §8
At t=60, 120 and 180 minutes remove […] from each basolateral compartment and place it in a 96-well plate for Lucifer Yellow analysis, replace with 100 μl of MHBSS.
Make a Lucifer Yellow standard curve with the following dilutions (7500 μM, 3750 μM, 750 μM, 375 μM, 37.5 μM, 7.5 μM, 3.75 μM, 0.75 μM) and pipette 100 μL of each into a 96-well plate except for the first three standards mentioned above which require a 1:10 dilutions prior to transferring to the 96-well plate.
Harvest the remaining start solutions and what is left in each apical compartment into 1.5 ml vials. Freeze at −20° C. for future analysis.
Analyze each 96-well plate in a Tecan Spectra Fluor Plus using Magellan at 485 and 535 nm.
as §9, §10, §11, §12, §13

Row | Substance | Reduced TEER (CaCo2 monolayers [1]) | Enhanced LY permeability (CaCo2 monolayers [2])
1 | 80 (F[AllylGly]IGRE-NH2; N-terminus assumed; SMILES C=CC[C@H](NC(=O)[C@@H](N)Cc1ccccc1)C(=O)N[C@H](C(=O)NCC(=O)N[C@@H](CCCNC(=N)N)C(=O)N[C@@H](CCC(=O)O)C(N)=O)[C@@H](C)CC) [compound 80] | + | +
2 | 47 (F[AllylGly]IERL-NH2; N-terminus assumed; SMILES C=CC[C@H](NC(=O)[C@@H](N)Cc1ccccc1)C(=O)N[C@H](C(=O)N[C@@H](CCC(=O)O)C(=O)N[C@@H](CCCNC(=N)N)C(=O)N[C@@H](CC(C)C)C(N)=O)[C@@H](C)CC) [compound 47] | + | +
3 | 57 (F[AllylGly]IGEL-NH2; N-terminus assumed; SMILES C=CC[C@H](NC(=O)[C@@H](N)Cc1ccccc1)C(=O)N[C@H](C(=O)NCC(=O)N[C@@H](CCC(=O)O)C(=O)N[C@@H](CC(C)C)C(N)=O)[C@@H](C)CC) [compound 57] | − | −
4 | 35 (F[AllylGly]RGRL-NH2; N-terminus assumed; SMILES C=CC[C@H](NC(=O)[C@@H](N)Cc1ccccc1)C(=O)N[C@@H](CCCNC(=N)N)C(=O)NCC(=O)N[C@@H](CCCNC(=N)N)C(=O)N[C@@H](CC(C)C)C(N)=O) [compound 35] | + | +
5 | 77 (F[AllylGly]IGRA-NH2; N-terminus assumed; SMILES C=CC[C@H](NC(=O)[C@@H](N)Cc1ccccc1)C(=O)N[C@H](C(=O)NCC(=O)N[C@@H](CCCNC(=N)N)C(=O)N[C@@H](C)C(N)=O)[C@@H](C)CC) [compound 77] | − | +
6 | 48 (F[AllylGly]IQRL-NH2; N-terminus assumed; SMILES C=CC[C@H](NC(=O)[C@@H](N)Cc1ccccc1)C(=O)N[C@H](C(=O)N[C@@H](CCC(N)=O)C(=O)N[C@@H](CCCNC(=N)N)C(=O)N[C@@H](CC(C)C)C(N)=O)[C@@H](C)CC) [compound 48] | + | +
7 | 86 (F[AllylGly]IGRK-NH2; N-terminus assumed; SMILES C=CC[C@H](NC(=O)[C@@H](N)Cc1ccccc1)C(=O)N[C@H](C(=O)NCC(=O)N[C@@H](CCCNC(=N)N)C(=O)N[C@@H](CCCCN)C(N)=O)[C@@H](C)CC) [compound 86] | − | +
8 | 26 (F[AllylGly]SGRL-NH2; N-terminus assumed; SMILES C=CC[C@H](NC(=O)[C@@H](N)Cc1ccccc1)C(=O)N[C@@H](CO)C(=O)NCC(=O)N[C@@H](CCCNC(=N)N)C(=O)N[C@@H](CC(C)C)C(N)=O) [compound 26] | + | +
9 | 43 (F[AllylGly]IPRL-NH2; N-terminus assumed; SMILES C=CC[C@H](NC(=O)[C@@H](N)Cc1ccccc1)C(=O)N[C@H](C(=O)N1CCC[C@H]1C(=O)N[C@@H](CCCNC(=N)N)C(=O)N[C@@H](CC(C)C)C(N)=O)[C@@H](C)CC) [compound 43] | − | −
10 | 30 (F[AllylGly]AGRL-NH2; N-terminus assumed; SMILES C=CC[C@H](NC(=O)[C@@H](N)Cc1ccccc1)C(=O)N[C@@H](C)C(=O)NCC(=O)N[C@@H](CCCNC(=N)N)C(=O)N[C@@H](CC(C)C)C(N)=O) [compound 30] | + | +
11 | 53 (F[AllylGly]ISRL-NH2; N-terminus assumed; SMILES C=CC[C@H](NC(=O)[C@@H](N)Cc1ccccc1)C(=O)N[C@H](C(=O)N[C@@H](CO)C(=O)N[C@@H](CCCNC(=N)N)C(=O)N[C@@H](CC(C)C)C(N)=O)[C@@H](C)CC) [compound 53] | + | +
12 | 75 (F[AllylGly]IGRR-NH2; N-terminus assumed; SMILES C=CC[C@H](NC(=O)[C@@H](N)Cc1ccccc1)C(=O)N[C@H](C(=O)NCC(=O)N[C@@H](CCCNC(=N)N)C(=O)N[C@@H](CCCNC(=N)N)C(N)=O)[C@@H](C)CC) [compound 75] | − | +
13 | 46 (F[AllylGly]IDRL-NH2; N-terminus assumed; SMILES C=CC[C@H](NC(=O)[C@@H](N)Cc1ccccc1)C(=O)N[C@H](C(=O)N[C@@H](CC(=O)O)C(=O)N[C@@H](CCCNC(=N)N)C(=O)N[C@@H](CC(C)C)C(N)=O)[C@@H](C)CC) [compound 46] | + | +
14 | 82 (F[AllylGly]IGRY-NH2; N-terminus assumed; SMILES C=CC[C@H](NC(=O)[C@@H](N)Cc1ccccc1)C(=O)N[C@H](C(=O)NCC(=O)N[C@@H](CCCNC(=N)N)C(=O)N[C@@H](Cc1ccc(O)cc1)C(N)=O)[C@@H](C)CC) [compound 82] | + | +
15 | 51 (F[AllylGly]IKRL-NH2; N-terminus assumed; SMILES C=CC[C@H](NC(=O)[C@@H](N)Cc1ccccc1)C(=O)N[C@H](C(=O)N[C@@H](CCCCN)C(=O)N[C@@H](CCCNC(=N)N)C(=O)N[C@@H](CC(C)C)C(N)=O)[C@@H](C)CC) [compound 51] | − | −
16 | 10 (E[AllylGly]IGRL-NH2; N-terminus assumed; SMILES C=CC[C@H](NC(=O)[C@@H](N)CCC(=O)O)C(=O)N[C@H](C(=O)NCC(=O)N[C@@H](CCCNC(=N)N)C(=O)N[C@@H](CC(C)C)C(N)=O)[C@@H](C)CC) [compound 10] | − | −
17 | 36 (F[AllylGly]KGRL-NH2; N-terminus assumed; SMILES C=CC[C@H](NC(=O)[C@@H](N)Cc1ccccc1)C(=O)N[C@@H](CCCCN)C(=O)NCC(=O)N[C@@H](CCCNC(=N)N)C(=O)N[C@@H](CC(C)C)C(N)=O) [compound 36] | + | +
18 | 85 (F[AllylGly]IGRM-NH2; N-terminus assumed; SMILES C=CC[C@H](NC(=O)[C@@H](N)Cc1ccccc1)C(=O)N[C@H](C(=O)NCC(=O)N[C@@H](CCCNC(=N)N)C(=O)N[C@@H](CCSC)C(N)=O)[C@@H](C)CC) [compound 85] | + | +
19 | 79 (F[AllylGly]IGRQ-NH2; N-terminus assumed; SMILES C=CC[C@H](NC(=O)[C@@H](N)Cc1ccccc1)C(=O)N[C@H](C(=O)NCC(=O)N[C@@H](CCCNC(=N)N)C(=O)N[C@@H](CCC(N)=O)C(N)=O)[C@@H](C)CC) [compound 79] | − | −
20 | 88 (F[AllylGly]IGRW-NH2; N-terminus assumed; SMILES C=CC[C@H](NC(=O)[C@@H](N)Cc1ccccc1)C(=O)N[C@H](C(=O)NCC(=O)N[C@@H](CCCNC(=N)N)C(=O)N[C@@H](Cc1c[nH]c2ccccc12)C(N)=O)[C@@H](C)CC) [compound 88] | + | +
21 | 83 (F[AllylGly]IGRS-NH2; N-terminus assumed; SMILES C=CC[C@H](NC(=O)[C@@H](N)Cc1ccccc1)C(=O)N[C@H](C(=O)NCC(=O)N[C@@H](CCCNC(=N)N)C(=O)N[C@@H](CO)C(N)=O)[C@@H](C)CC) [compound 83] | − | −
